# Laboratory results: patent US7998965B2, “Glutamate aggrecanase inhibitors” (Wyeth LLC, priority 2005, dated 2011)
# Read-outs that look alike come from different tables or passages of the source.
# Experiments:
# [1] = biological target: T1, purified recombinant human Aggrecanase-1 (rAgg1) (Homo sapiens, UniProt O75173); experiment: In vitro fluorescence screen for Aggrecanase-1 inhibitors; type: biochemical; conditions: for IC50: read-out: Agg1 IC50; for Ki: read-out: Ki Agg1
# T1 sequence (O75173 213-837): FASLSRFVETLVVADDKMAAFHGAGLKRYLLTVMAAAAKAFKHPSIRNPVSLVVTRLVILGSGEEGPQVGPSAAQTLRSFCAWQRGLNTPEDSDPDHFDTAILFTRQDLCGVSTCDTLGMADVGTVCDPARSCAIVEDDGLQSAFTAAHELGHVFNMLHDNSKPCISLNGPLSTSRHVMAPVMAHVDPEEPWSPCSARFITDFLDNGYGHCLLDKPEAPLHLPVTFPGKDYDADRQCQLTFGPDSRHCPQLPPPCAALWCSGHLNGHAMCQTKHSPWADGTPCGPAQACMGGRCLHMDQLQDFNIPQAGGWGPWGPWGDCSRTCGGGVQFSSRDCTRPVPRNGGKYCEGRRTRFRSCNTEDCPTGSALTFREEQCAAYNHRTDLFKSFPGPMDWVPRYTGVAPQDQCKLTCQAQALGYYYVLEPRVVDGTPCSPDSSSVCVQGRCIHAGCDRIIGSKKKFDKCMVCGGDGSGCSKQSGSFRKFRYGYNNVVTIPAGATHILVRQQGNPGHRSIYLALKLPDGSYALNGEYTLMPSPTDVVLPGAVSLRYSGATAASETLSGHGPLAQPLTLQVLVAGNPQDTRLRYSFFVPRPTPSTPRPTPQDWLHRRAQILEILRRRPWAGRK
# [2] = biological target: T2, purified recombinant human Aggrecanase-2 (Ag2t-Phe628-Strep) (Homo sapiens, UniProt Q9UNA0); experiment: In vitro fluorescence screen for Aggrecanase-2 inhibitors; type: biochemical; conditions: for IC50: read-out: Agg 2 IC50; for Ki: read-out: Ki Agg2
# T2 construct: the form used is denoted as Ag2t-Phe628-Strep (MW=41,737)
# T2 sequence (Q9UNA0 262-628): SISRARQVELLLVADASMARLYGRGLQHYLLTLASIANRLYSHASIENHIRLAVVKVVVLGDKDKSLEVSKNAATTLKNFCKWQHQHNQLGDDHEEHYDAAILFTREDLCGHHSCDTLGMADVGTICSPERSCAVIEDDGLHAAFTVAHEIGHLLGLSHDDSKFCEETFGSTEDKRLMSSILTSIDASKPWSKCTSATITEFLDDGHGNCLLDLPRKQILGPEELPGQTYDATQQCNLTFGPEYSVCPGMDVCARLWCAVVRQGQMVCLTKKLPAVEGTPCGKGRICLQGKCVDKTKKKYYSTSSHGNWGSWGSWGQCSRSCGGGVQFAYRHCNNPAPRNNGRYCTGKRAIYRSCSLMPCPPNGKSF
SMILES,IC50 ([1]; Table 3) [nM],IC50 ([2]; Table 3) [nM],IC50 ([1]; Table 2) [nM],IC50 ([2]; Table 2) [nM],other results
"COc1cc(CNC(=O)[C@H](CCC(=O)O)NC(=O)c2ccc(-c3cccc(OCc4ccccc4)c3)cc2)cc(OC)c1OC [Example 15K, N^2-{[3′-(benzyloxy)biphenyl-4-yl]carbonyl}-N-(3,4,5-trimethoxybenzyl)-L-α-glutamine]",< 30,379,,,
"CC(C)(Cc1ccc(Cl)cc1)NC(=O)[C@H](CCC(=O)O)NC(=O)c1ccc(-c2ccc(F)cc2)s1 [N-[2-(4-chlorophenyl)-1,1-dimethylethyl]-N^2-{[5-(4-fluorophenyl)-2-thienyl]carbonyl}-L-α-glutamine]",< 30,30 to 100,,,Ki ([1]; Table 3): < 3 nM; Ki ([2]; Table 3): 87 nM
"COc1cccc(-c2ccc(C(=O)N[C@@H](CCC(=O)O)C(=O)NC(C)(C)Cc3ccccc3)s2)c1 [N-(1,1-dimethyl-2-phenylethyl)-N^2-{[5-(3-methoxyphenyl)-2-thienyl]carbonyl}-L-α-glutamine]",< 30,70 to 200,,,Ki ([1]; Table 3): < 3 nM; Ki ([2]; Table 3): 151 nM
"CC(C)(Cc1ccc(F)cc1)NC(=O)[C@H](CCC(=O)O)NC(=O)c1ccc(-c2ccc(O)cc2)cc1 [Example 17OO, N-[2-(4-fluorophenyl)-1,1-dimethylethyl]-N^2-[(4′-hydroxybiphenyl-4-yl)carbonyl]-L-α-glutamine]",,,< 30,1680,
"O=C(O)CC[C@H](NC(=O)c1ccc(-c2ccc3[nH]ccc3c2)cc1)C(=O)NCC12CC3CC(CC(C3)C1)C2 [Example 17CC, N-(1-adamantylmethyl)-N^2-[4-(1H-indol-5-yl)benzoyl]-L-α-glutamine]",,,2900,2970,
"CC(C)(Cc1ccc(F)cc1)NC(=O)[C@H](CCC(=O)O)NC(=O)c1ccc(-c2cccnc2)s1 [Example 8ZZZZZZZZ, N-[2-(4-fluorophenyl)-1,1-dimethylethyl]-N^2-[(5-pyridin-3-yl-2-thienyl)carbonyl]-L-α-glutamine]",20 to 70,9900,,,
"CC(C)(NC(=O)[C@H](CCC(=O)O)NC(=O)c1ccc2c(c1)C(=O)c1ccccc1-2)c1ccccc1 [Example 8MMMMM, N^1-(1-methyl-1-phenylethyl)-N^2-[(9-oxo-9H-fluoren-2-yl)carbonyl]-L-α-glutamine]",,,20000,~22000,
"O=C(O)CC[C@H](NC(=O)c1ccc(-c2ccccc2)cc1)C(=O)NCCc1ccc(Br)cc1 [Example 8KKK, N^2-(biphenyl-4-ylcarbonyl)-N^1-[2-(4-bromophenyl)ethyl]-L-α-glutamine]",,,,,IC50 ([1]; Table 1): 120 nM; IC50 ([2]; Table 1): 2000 nM
"COc1ccc(-c2ccc(C(=O)NC(CCC(=O)O)C(=O)NCc3cc(OC)c(OC)c(OC)c3)cc2)cc1C (stereo not drawn) [Example 17M, 4-[(4′-Methoxy-3′-methyl-biphenyl-4-carbonyl)-amino]-4-(3,4,5-trimethoxy-benzylcarbamoyl)-butyric acid]",,,~310,> 11000,
"COc1ccc(-c2ccc(C(=O)N[C@@H](CCC(=O)O)C(=O)NCc3cc(OC)c(OC)c(OC)c3)cc2)cc1OC [Example 17F, N^2-[(3′,4′-dimethoxybiphenyl-4-yl)carbonyl]-N-(3,4,5-trimethoxybenzyl)-L-α-glutamine]",,,1700,~8300,
"C[C@H](NC(=O)[C@H](CCC(=O)O)NC(=O)c1ccc(-c2ccccc2)cc1)c1ccccc1 [Example 8PPPPP, N^2-(biphenyl-4-ylcarbonyl)-N^1-[(1S)-1-phenylethyl]-L-α-glutamine]",,,157,2970,
"CC(C)(Cc1ccc(Cl)cc1)NC(=O)[C@H](CCC(=O)O)NC(=O)c1ccc(-c2c(F)cccc2F)cc1 [Example 8CCCCCCC, N-[2-(4-chlorophenyl)-1,1-dimethylethyl]-N^2-[(2′,6′-difluorobiphenyl-4-yl)carbonyl]-L-α-glutamine]",50,680,,,
"COc1cc(CNC(=O)[C@H](CCC(=O)O)NC(=O)c2ccc(-c3ccc(-c4ccccc4)cc3)cc2)cc(OC)c1OC [Example 17II, N^2-(1,1′:4′,1″-terphenyl-4-ylcarbonyl)-N-(3,4,5-trimethoxybenzyl)-L-α-glutamine]",,,1000 to 3000,~10000,
"C[C@@H](NC(=O)[C@H](CCC(=O)O)NC(=O)c1ccc2c(c1)Cc1ccccc1-2)c1ccccc1 [Example 8VVVVV, N^2-(9H-fluoren-2-ylcarbonyl)-N^1-[(1R)-1-phenylethyl]-L-α-glutamine]",,,221,1560,
"Cc1ccc(-c2ccc(C(=O)N[C@@H](CCC(=O)O)C(=O)NC(C)(C)Cc3ccccc3)cc2)cc1 [Example 17TT, N-(1,1-dimethyl-2-phenylethyl)-N^2-[(4′-methylbiphenyl-4-yl)carbonyl]-L-α-glutamine]",,,120,173,
"CC(C)(Cc1ccccc1)NC(=O)[C@H](CCC(=O)O)NC(=O)c1ccc(-c2ccc3c(c2)OCC3)cc1 [N^2-[4-(2,3-dihydro-1-benzofuran-6-yl)benzoyl]-N-(1,1-dimethyl-2-phenylethyl)-L-α-glutamine]",70,270 to 800,,,
"CC(C)(Cc1ccc(Cl)cc1)NC(=O)[C@H](CCC(=O)O)NC(=O)c1ccc(-c2ccc(Cl)s2)cc1 [N-[2-(4-chlorophenyl)-1,1-dimethylethyl]-N^2-[4-(5-chloro-2-thienyl)benzoyl]-L-α-glutamine]",< 30,70 to 200,,,Ki ([1]; Table 3): 5.4 nM; Ki ([2]; Table 3): 51 nM
"Nc1cccc(C#Cc2ccc(C(=O)N[C@@H](CCC(=O)O)C(=O)NCc3ccccc3)cc2)c1 [Example 12J, N^2-{4-[(3-aminophenyl)ethynyl]benzoyl}-N-benzyl-L-α-glutamine]",,,~8000,~22000,
"C[C@@H](CNC(=O)[C@H](CCC(=O)O)NC(=O)c1ccc(-c2ccccc2)cc1)c1ccccc1 [Example 8KKKKKK, N^2-(biphenyl-4-ylcarbonyl)-N-[(2R)-2-phenylpropyl]-L-α-glutamine]",,,350,1670,
"CC(C)(Cc1ccccc1)NC(=O)[C@H](CCC(=O)O)NC(=O)c1ccc(-c2ccc(O)cc2)cc1 [Example 17LL, N-(1,1-dimethyl-2-phenylethyl)-N^2-[(4′-hydroxybiphenyl-4-yl)carbonyl]-L-α-glutamine]",,,87,1190,
"CC(C)(Cc1ccc(Cl)s1)NC(=O)[C@H](CCC(=O)O)NC(=O)c1ccc(-c2ccccc2)cc1 [Example 8JJJJJJJ, N^2-(biphenyl-4-ylcarbonyl)-N-[2-(5-chloro-2-thienyl)-1,1-dimethylethyl]-L-α-glutamine]",< 30,53,,,
"Cc1cccc(CNC(=O)[C@H](CCC(=O)O)NC(=O)c2ccc3c(c2)C(=O)c2ccccc2-3)c1 [Example 8DDDDD, N^1-(3-methylbenzyl)-N^2-[(9-oxo-9H-fluoren-2-yl)carbonyl]-L-α-glutamine]",,,315,1100,
"CC(C)(Cc1ccc(Cl)cc1)NC(=O)[C@H](CCC(=O)O)NC(=O)c1ccc(-c2ccc(F)c(Cl)c2)s1 [N^2-{[5-(3-chloro-4-fluorophenyl)-2-thienyl]carbonyl}-N-[2-(4-chlorophenyl)-1,1-dimethylethyl]-L-α-glutamine]",60,3000,,,
"CC(C)(Cc1ccc(F)cc1)NC(=O)[C@H](CCC(=O)O)NC(=O)c1ccc(-c2ccccc2)nc1 [N-[2-(4-fluorophenyl)-1,1-dimethylethyl]-N^2-[(6-phenylpyridin-3-yl)carbonyl]-L-α-glutamine]",50,1000,,,
